# Measurements: patent US8299048B2, “Hexahydrocyclopentyl[f]indazole sulfonamides and derivatives thereof as selective glucocorticoid receptor modulators” (Merck Sharp & Dohme Corp., priority 2008, dated 2012)
# Target: T1, human GR (Homo sapiens, UniProt P04150)
# T1 sequence (P04150 1-777): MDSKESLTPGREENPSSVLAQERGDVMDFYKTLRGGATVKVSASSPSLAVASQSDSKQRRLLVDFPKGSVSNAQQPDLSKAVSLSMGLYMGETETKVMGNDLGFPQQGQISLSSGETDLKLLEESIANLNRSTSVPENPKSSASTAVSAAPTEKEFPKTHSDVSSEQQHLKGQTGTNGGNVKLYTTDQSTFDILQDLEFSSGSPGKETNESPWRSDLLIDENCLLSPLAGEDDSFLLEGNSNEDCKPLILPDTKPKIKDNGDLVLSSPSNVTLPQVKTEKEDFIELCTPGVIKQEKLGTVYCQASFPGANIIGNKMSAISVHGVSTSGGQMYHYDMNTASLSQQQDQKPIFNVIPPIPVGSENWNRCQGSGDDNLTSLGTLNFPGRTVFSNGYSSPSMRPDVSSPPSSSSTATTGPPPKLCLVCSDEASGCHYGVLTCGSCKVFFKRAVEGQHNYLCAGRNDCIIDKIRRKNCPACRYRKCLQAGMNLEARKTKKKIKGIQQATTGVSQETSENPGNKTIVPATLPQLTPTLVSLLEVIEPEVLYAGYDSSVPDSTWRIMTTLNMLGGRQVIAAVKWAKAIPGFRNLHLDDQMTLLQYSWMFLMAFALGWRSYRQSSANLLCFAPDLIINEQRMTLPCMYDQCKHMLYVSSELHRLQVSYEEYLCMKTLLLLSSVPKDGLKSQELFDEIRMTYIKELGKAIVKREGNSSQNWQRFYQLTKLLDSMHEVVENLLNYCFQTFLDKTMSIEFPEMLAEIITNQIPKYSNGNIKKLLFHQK
# Assay: Trans-Activation Modulation of Glucocorticoid Receptor (GRAMMER), MMTV-LUC reporter, agonist mode
# Type: cell-based
# Set-up: endogenous in cells
# Conditions: for Emax: A549, A549 cells, maximum activity, read-out: Transactivation A549 Cells GRAMMER Emax; for EC50: A549 cells, inflection point, read-out: Transactivation A549 Cells GRAMMER IP
# Method in brief: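 Readout is luciferase from a modified MMTV LTR promoter after 24 h compound exposure alongside 10 nM dexamethasone (100% activity reference), DMSO ≤1%.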
Emax [%],EC50 [nM],Compound
10.5,845,"C[C@]12Cc3cnn(-c4ccc(F)cc4)c3C=C1CC[C@@H]2CN(CC#N)S(=O)(=O)c1cc(Cl)c(Cl)s1 [Example 24, 4,5-dichloro-N-(cyanomethyl)-N-{[(4αR,5S)-1-(4-fluorophenyl)-4α-methyl-1,4,4α,5,6,7-hexahydrocyclopenta[f]indazol-5-yl]methyl}thiophene-2-sulfonamide]"
76.4,453,"C[C@]12Cc3cnn(-c4ccc(F)cc4)c3C=C1CC[C@@H]2CN(CC#N)S(=O)(=O)c1ccc(F)c(F)c1 [Example 25, N-(cyanomethyl)-3,4-difluoro-N-{[(4αR,5S)-1-(4-fluorophenyl)-4α-methyl-1,4,4α,5,6,7-hexahydrocyclopenta[f]indazol-5-yl]methyl}benzenesulfonamide]"
5.8,939,"C[C@]12Cc3cnn(-c4ccc(F)cc4)c3C=C1CC[C@@H]2CN(CC#N)S(=O)(=O)c1cccc(Cl)c1Cl [Example 26, 2,3-dichloro-N-(cyanomethyl)-N-{[(4αR,5S)-1-(4-fluorophenyl)-4α-methyl-1,4,4α,5,6,7-hexahydrocyclopenta[f]indazol-5-yl]methyl}benzenesulfonamide]"
3,994,"C[C@]12Cc3cnn(-c4ccc(F)cc4)c3C=C1CC[C@@H]2CN(CC#N)S(=O)(=O)c1ccc(Cl)c(C(F)(F)F)c1 [Example 27, 4-chloro-N-(cyanomethyl)-N-{[(4αR,5S)-1-(4-fluorophenyl)-4α-methyl-1,4,4α,5,6,7-hexahydrocyclopenta[f]indazol-5-yl]methyl}-3-(trifluoromethyl)benzenesulfonamide]"
44,483,"C[C@]12Cc3cnn(-c4ccc(F)cc4)c3C=C1CC[C@@H]2CN(CC#N)S(=O)(=O)c1ccc(C#N)cc1 [Example 28, 4-cyano-N-(cyanomethyl)-N-{[(4αR,5S)-1-(4-fluorophenyl)-4α-methyl-1,4,4α,5,6,7-hexahydrocyclopenta[f]indazol-5-yl]methyl}benzenesulfonamide]"
4.7,1710,"Cc1cc(S(=O)(=O)N(CC#N)C[C@H]2CCC3=Cc4c(cnn4-c4ccc(F)cc4)C[C@@]32C)c(C)cc1Cl [Example 29, 4-chloro-N-(cyanomethyl)-N-{[(4αR,5S)-1-(4-fluorophenyl)-4α-methyl-1,4,4α,5,6,7-hexahydrocyclopenta[f]indazol-5-yl]methyl}-2,5-dimethylbenzenesulfonamide]"
3.5,1640,"C[C@]12Cc3cnn(-c4ccc(F)cc4)c3C=C1CC[C@@H]2CN(CC#N)S(=O)(=O)Cc1cccc(C(F)(F)F)c1 [Example 30, N-(cyanomethyl)-N-{[(4αR,5S)-1-(4-fluorophenyl}-4α-methyl-1,4,4α,5,6,7-hexahydrocyclopenta[f]indazol-5-yl]methyl}-1-[3-(trifluoromethyl)phenyl]methanesulfonamide]"
20.7,833,"Cc1ccc(S(=O)(=O)N(CC#N)C[C@H]2CCC3=Cc4c(cnn4-c4ccc(F)cc4)C[C@@]32C)s1 [Example 31, N-(cyanomethyl)-N-{[(4αR,5S)-1-(4-fluorophenyl}-4α-methyl-1,4,4α,5,6,7-hexahydrocyclopenta[f]indazol-5-yl]methyl}-5-methylthiophene-2-sulfonamide]"
29.4,868,"Cn1cc(S(=O)(=O)N(CC#N)C[C@H]2CCC3=Cc4c(cnn4-c4ccc(F)cc4)C[C@@]32C)c(C(F)(F)F)n1 [Example 32, N-(cyanomethyl)-N-{[(4αR,5S)-1-(4-fluorophenyl}-4α-methyl-1,4,4α,5,6,7-hexahydrocyclopenta[f]indazol-5-yl]methyl}-1-methyl-3-(trifluoromethyl)-1H-pyrazole-4-sulfonamide]"
15.2,1050,"Cc1cc(S(=O)(=O)N(CC#N)C[C@H]2CCC3=Cc4c(cnn4-c4ccc(F)cc4)C[C@@]32C)c(C)o1 [Example 33, (4αR,5S)-5-({(cyanomethyl)[(2,5-dimethyl-3-furyl)sulfonyl]amino}methyl)-1-(4-fluorophenyl)-4α-methyl-1,4,4α,5,6,7-hexahydrocyclopenta[f]indazol-2-ium]"
37,748,"COC(=O)c1sccc1S(=O)(=O)N(CC#N)C[C@H]1CCC2=Cc3c(cnn3-c3ccc(F)cc3)C[C@@]21C [Example 34, methyl 3-[((cyanomethyl){[(4αR,5S)-1-(4-fluorophenyl)-4α-methyl-1,4,4α,5,6,7-hexahydrocyclopenta[f]indazol-5-yl]methyl}amino)sulfonyl]thiophene-2-carboxylate]"
4.9,443,Cn1nc(C(F)(F)F)cc1-c1ccc(S(=O)(=O)N(CC#N)C[C@H]2CCC3=Cc4c(cnn4-c4ccc(F)cc4)C[C@@]32C)s1 [Example 35]
22.7,745,"C[C@]12Cc3cnn(-c4ccc(F)cc4)c3C=C1CC[C@@H]2CN(CC#N)S(=O)(=O)c1cccc(C#N)c1 [Example 36, 3-cyano-N-(cyanomethyl)-N-{[(4αR,5S)-1-(4-fluorophenyl)-4α-methyl-1,4,4α,5,6,7-hexahydrocyclopenta[f]indazol-5-yl]methyl}benzenesulfonamide]"
2.8,2190,"Cn1cnc(S(=O)(=O)N(CC#N)C[C@H]2CCC3=Cc4c(cnn4-c4ccc(F)cc4)C[C@@]32C)c1 [Example 37, N-(cyanomethyl)-N-{[(4αR,5S)-1-(4-fluorophenyl}-4α-methyl-1,4,4α,5,6,7-hexahydrocyclopenta[f]indazol-5-yl]methyl}-1-methyl-1H-imidazole-4-sulfonamide]"
1.3,5000,"C[C@]12Cc3cnn(-c4ccc(F)cc4)c3C=C1CC[C@@H]2CN(CC#N)S(=O)(=O)c1ccc(Oc2cccc(Cl)c2C#N)cc1 [Example 38, 4-(3-chloro-2-cyanophenoxy)-N-(cyanomethyl)-N-{[(4αR,5S)-1-(4-fluorophenyl)-4α-methyl-1,4,4α,5,6,7-hexahydrocyclopenta[f]indazol-5-yl]methyl}benzenesulfonamide]"
1.7,5000,"CN1CCOc2cc(S(=O)(=O)N(CC#N)C[C@H]3CCC4=Cc5c(cnn5-c5ccc(F)cc5)C[C@@]43C)ccc21 [Example 39, N-(cyanomethyl)-N-{[(4αR,5S)-1-(4-fluorophenyl)-4α-methyl-1,4,4α,5,6,7-hexahydrocyclopenta[f]indazol-5-yl]methyl}-4-methyl-3,4-dihydro-2H-1,4-benzoxazine-7-sulfonamide]"
3.2,82.8,"C[C@]12Cc3cnn(-c4ccc(F)cc4)c3C=C1CC[C@@H]2CN(CC#N)S(=O)(=O)c1cccc2ccccc12 [Example 40, N-(cyanomethyl)-N-{[(4αR,5S)-1-(4-fluorophenyl)-4α-methyl-1,4,4α,5,6,7-hexahydrocyclopenta[f]indazol-5-yl]methyl}naphthalene-1-sulfonamide]"
60.3,124,"C[C@]12Cc3cnn(-c4ccc(F)cc4)c3C=C1CC[C@@H]2CN(CC#N)S(=O)(=O)c1cc(OCC(F)(F)F)ccc1OCC(F)(F)F [Example 41, N-(cyanomethyl)-N-{[(4αR,5S)-1-(4-fluorophenyl)-4α-methyl-1,4,4α,5,6,7-hexahydrocyclopenta[f]indazol-5-yl]methyl}-2,5-bis(2,2,2-trifluoroethoxy)benzenesulfonamide]"
4.2,228,"C[C@]12Cc3cnn(-c4ccc(F)cc4)c3C=C1CC[C@@H]2CN(CC#N)S(=O)(=O)c1ccc(-c2ccccc2)cc1 [Example 42, N-(cyanomethyl)-N-{[(4αR,5S)-1-(4-fluorophenyl)-4α-methyl-1,4,4α,5,6,7-hexahydrocyclopenta[f]indazol-5-yl]methyl}biphenyl-4-sulfonamide]"
36,470,"C[C@]12Cc3cnn(-c4ccc(F)cc4)c3C=C1CC[C@@H]2CN(CC#N)S(=O)(=O)c1ccccc1F [Example 43, N-(cyanomethyl)-2-fluoro-N-{[(4αR,5S)-1-(4-fluorophenyl)-4α-methyl-1,4,4α,5,6,7-hexahydrocyclopenta[f]indazol-5-yl]methyl}benzenesulfonamide]"
44.8,622,"C[C@]12Cc3cnn(-c4ccc(F)cc4)c3C=C1CC[C@@H]2CN(CC#N)S(=O)(=O)c1cc(F)cc(F)c1 [Example 44, N-(cyanomethyl)-3,5-difluoro-N-{[(4αR,5S)-1-(4-fluorophenyl)-4α-methyl-1,4,4α,5,6,7-hexahydrocyclopenta[f]indazol-5-yl]methyl}benzenesulfonamide]"
11.4,2890,"C[C@]12Cc3cnn(-c4ccc(F)cc4)c3C=C1CC[C@@H]2CN(CC#N)S(=O)(=O)c1ccc(Oc2ccccn2)cc1 [Example 45, N-(cyanomethyl)-N-{[(4αR,5S)-1-(4-fluorophenyl)-4α-methyl-1,4,4α,5,6,7-hexahydrocyclopenta[f]indazol-5-yl]methyl}-4-(pyridin-2-yloxy)benzenesulfonamide]"
